Measurements: PubChem BioAssay (NCI)
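Five concentrations, 48 hours, 96-well plates. At the TGI there is no net growth.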

Tests used:
Experiment in all cases: NCI tumour cell line growth inhibition, 48 h
A498 renal = tested on: A498 renal
A549 NSCLC = tested on: A549 NSCLC
ACHN renal = tested on: ACHN renal
BT-549 breast = tested on: BT-549 breast
CAKI-1 renal = tested on: CAKI-1 renal
CCRF-CEM leukemia = tested on: CCRF-CEM leukemia
COLO 205 colon = tested on: COLO 205 colon
DU-145 prostate = tested on: DU-145 prostate
EKVX NSCLC = tested on: EKVX NSCLC
HCC-2998 colon = tested on: HCC-2998 colon
HCT-116 colon = tested on: HCT-116 colon
HCT-15 colon = tested on: HCT-15 colon
HL-60(TB) leukemia = tested on: HL-60(TB) leukemia
HOP-62 NSCLC = tested on: HOP-62 NSCLC
HOP-92 NSCLC = tested on: HOP-92 NSCLC
HS 578T breast = tested on: HS 578T breast
HT29 colon = tested on: HT29 colon
IGROV1 ovarian = tested on: IGROV1 ovarian
K-562 leukemia = tested on: K-562 leukemia
LOX IMVI melanoma = tested on: LOX IMVI melanoma
MALME-3M melanoma = tested on: MALME-3M melanoma
MCF7 breast = tested on: MCF7 breast
MDA-MB-231 breast = tested on: MDA-MB-231 breast
MDA-MB-435 = tested on: MDA-MB-435
MDA-N = tested on: MDA-N
MOLT-4 leukemia = tested on: MOLT-4 leukemia
NCI-H226 lung = tested on: NCI-H226 lung
NCI-H23 lung = tested on: NCI-H23 lung
NCI-H460 lung = tested on: NCI-H460 lung
NCI-H522 lung = tested on: NCI-H522 lung
NCI/ADR-RES ovarian = tested on: NCI/ADR-RES ovarian
OVCAR-3 ovarian = tested on: OVCAR-3 ovarian
OVCAR-4 ovarian = tested on: OVCAR-4 ovarian
OVCAR-5 ovarian = tested on: OVCAR-5 ovarian
OVCAR-8 ovarian = tested on: OVCAR-8 ovarian
PC-3 prostate = tested on: PC-3 prostate
RPMI-8226 leukemia = tested on: RPMI-8226 leukemia
RXF 393 renal = tested on: RXF 393 renal
SF-268 CNS = tested on: SF-268 CNS
SF-295 CNS = tested on: SF-295 CNS
SF-539 CNS = tested on: SF-539 CNS
SK-MEL-2 melanoma = tested on: SK-MEL-2 melanoma
SK-MEL-28 melanoma = tested on: SK-MEL-28 melanoma
SK-MEL-5 melanoma = tested on: SK-MEL-5 melanoma
SK-OV-3 ovarian = tested on: SK-OV-3 ovarian
SN12C renal = tested on: SN12C renal
SNB-19 CNS = tested on: SNB-19 CNS
SNB-75 CNS = tested on: SNB-75 CNS
SR leukemia = tested on: SR leukemia
SW-620 colon = tested on: SW-620 colon
TK-10 renal = tested on: TK-10 renal
U251 CNS = tested on: U251 CNS
UACC-257 melanoma = tested on: UACC-257 melanoma
UACC-62 melanoma = tested on: UACC-62 melanoma
UO-31 renal = tested on: UO-31 renal
786-0 renal = tested on: 786-0 renal
KM12 colon = tested on: KM12 colon
M14 melanoma = tested on: M14 melanoma

With `CCN(CC)Cc1ccc2cccnc2c1O` the TGI (A498 renal) was 33.5 µM, the TGI (A549 NSCLC) was 32.9 µM and the TGI (ACHN renal) was greater than 100 µM. For the same compound, the TGI (BT-549 breast) was greater than 100 µM, the TGI (CAKI-1 renal) was greater than 100 µM and the TGI (CCRF-CEM leukemia) was 13.3 µM. For the same compound, the TGI (COLO 205 colon) was 42 µM, the TGI (DU-145 prostate) was greater than 100 µM and the TGI (EKVX NSCLC) was greater than 100 µM. For the same compound, the TGI (HCC-2998 colon) was 59.7 µM, the TGI (HCT-116 colon) was 41.8 µM and the TGI (HCT-15 colon) was 18.5 µM. For the same compound, the TGI (HL-60(TB) leukemia) was 75 µM, the TGI (HOP-62 NSCLC) was 65.4 µM and the TGI (HOP-92 NSCLC) was greater than 100 µM. For the same compound, the TGI (HS 578T breast) was greater than 100 µM, the TGI (HT29 colon) was 12.8 µM and the TGI (IGROV1 ovarian) was 18.4 µM. For the same compound, the TGI (K-562 leukemia) was greater than 100 µM, the TGI (LOX IMVI melanoma) was greater than 100 µM and the TGI (MALME-3M melanoma) was greater than 100 µM. It also gave a TGI (MCF7 breast) greater than 100 µM, a TGI (MDA-MB-231 breast) greater than 100 µM and a TGI (MDA-MB-435) greater than 100 µM. The TGI (MDA-N) was 49.7 µM, the TGI (MOLT-4 leukemia) was 10 µM and the TGI (NCI-H226 lung) was greater than 100 µM. The TGI (NCI-H23 lung) was greater than 100 µM, the TGI (NCI-H460 lung) was 19.8 µM and the TGI (NCI-H522 lung) was 3.28 µM. It also gave a TGI (NCI/ADR-RES ovarian) of 2.1 µM, a TGI (OVCAR-3 ovarian) of 11.4 µM and a TGI (OVCAR-4 ovarian) greater than 100 µM. The TGI (OVCAR-5 ovarian) was 45.5 µM, the TGI (OVCAR-8 ovarian) was 7.01 µM and the TGI (PC-3 prostate) was greater than 100 µM. The TGI (RPMI-8226 leukemia) was 23.7 µM, the TGI (RXF 393 renal) was greater than 100 µM and the TGI (SF-268 CNS) was greater than 100 µM. The TGI (SF-295 CNS) was 51.2 µM, the TGI (SF-539 CNS) was 20.7 µM and the TGI (SK-MEL-2 melanoma) was 80.1 µM. For the same compound, the TGI (SK-MEL-28 melanoma) was greater than 100 µM, the TGI (SK-MEL-5 melanoma) was greater than 100 µM and the TGI (SK-OV-3 ovarian) was 25.1 µM. For the same compound, the TGI (SN12C renal) was 47.2 µM, the TGI (SNB-19 CNS) was greater than 100 µM and the TGI (SNB-75 CNS) was 12.7 µM. It also gave a TGI (SR leukemia) greater than 100 µM, a TGI (SW-620 colon) greater than 100 µM and a TGI (TK-10 renal) of 33.1 µM. For the same compound, the TGI (U251 CNS) was greater than 100 µM, the TGI (UACC-257 melanoma) was greater than 100 µM and the TGI (UACC-62 melanoma) was greater than 100 µM. The TGI (UO-31 renal) was greater than 100 µM.
With `c1ccc2[nH]c3[nH]c4[nH]c5ccccc5[nH]c4[nH]c3[nH]c2c1` the TGI (786-0 renal) was greater than 100 µM, the TGI (A498 renal) was greater than 100 µM and the TGI (A549 NSCLC) was greater than 100 µM. The TGI (ACHN renal) was greater than 100 µM, the TGI (BT-549 breast) was greater than 100 µM and the TGI (CAKI-1 renal) was greater than 100 µM. It also gave a TGI (CCRF-CEM leukemia) greater than 100 µM, a TGI (COLO 205 colon) greater than 100 µM and a TGI (DU-145 prostate) greater than 100 µM. For the same compound, the TGI (EKVX NSCLC) was greater than 100 µM, the TGI (HCC-2998 colon) was greater than 100 µM and the TGI (HCT-116 colon) was greater than 100 µM. It also gave a TGI (HCT-15 colon) greater than 100 µM, a TGI (HL-60(TB) leukemia) greater than 100 µM and a TGI (HOP-62 NSCLC) greater than 100 µM. For the same compound, the TGI (HS 578T breast) was greater than 100 µM, the TGI (HT29 colon) was greater than 100 µM and the TGI (IGROV1 ovarian) was greater than 100 µM. The TGI (K-562 leukemia) was greater than 100 µM, the TGI (KM12 colon) was greater than 100 µM and the TGI (LOX IMVI melanoma) was greater than 100 µM. The TGI (M14 melanoma) was greater than 100 µM, the TGI (MALME-3M melanoma) was greater than 100 µM and the TGI (MCF7 breast) was greater than 100 µM. It also gave a TGI (MDA-MB-231 breast) greater than 100 µM, a TGI (MDA-MB-435) greater than 100 µM and a TGI (MDA-N) greater than 100 µM. For the same compound, the TGI (MOLT-4 leukemia) was greater than 100 µM, the TGI (NCI-H226 lung) was greater than 100 µM and the TGI (NCI-H23 lung) was greater than 100 µM. It also gave a TGI (NCI-H460 lung) greater than 100 µM, a TGI (NCI-H522 lung) greater than 100 µM and a TGI (NCI/ADR-RES ovarian) greater than 100 µM. For the same compound, the TGI (OVCAR-3 ovarian) was greater than 100 µM, the TGI (OVCAR-5 ovarian) was greater than 100 µM and the TGI (OVCAR-8 ovarian) was greater than 100 µM. The TGI (PC-3 prostate) was greater than 100 µM, the TGI (RPMI-8226 leukemia) was greater than 100 µM and the TGI (RXF 393 renal) was greater than 100 µM. For the same compound, the TGI (SF-268 CNS) was greater than 100 µM, the TGI (SF-295 CNS) was greater than 100 µM and the TGI (SF-539 CNS) was greater than 100 µM. For the same compound, the TGI (SK-MEL-2 melanoma) was greater than 100 µM, the TGI (SK-MEL-28 melanoma) was greater than 100 µM and the TGI (SK-MEL-5 melanoma) was greater than 100 µM. The TGI (SK-OV-3 ovarian) was greater than 100 µM, the TGI (SN12C renal) was greater than 100 µM and the TGI (SNB-19 CNS) was greater than 100 µM. For the same compound, the TGI (SNB-75 CNS) was 53.4 µM, the TGI (SR leukemia) was greater than 100 µM and the TGI (SW-620 colon) was greater than 100 µM. It also gave a TGI (TK-10 renal) greater than 100 µM, a TGI (U251 CNS) greater than 100 µM and a TGI (UACC-257 melanoma) greater than 100 µM. It also gave a TGI (UACC-62 melanoma) greater than 100 µM and a TGI (UO-31 renal) greater than 100 µM.
